Where a SMILES comes first, the peptide text is derived from it. The star is where a group is joined. Cbz = O=C(OCc1ccccc1)*
What was measured:
Format in all cases: cell-based, Chinese hamster
[1] = test system: CHO-ts20 cells expressing GHR; test: 125I-GH uptake (internalization) kinetic experiment; conditions: inhibitor 20 mM added 3 hours before; 125I-GH 8 nM bound on ice, incubated at 30° C.
Method: FIG. 2. […] CHO-ts20 cells were incubated with or without inhibitors for 3 hours at 30° C., and put on ice for 60 minutes with ^125I-GH. The cells were then incubated at 30° C. as indicated. Background label was determined in untransfected cells and subtracted. Plotted are the amounts of ^125I-GH internalized as a percentage of the cell-associated radioactivity at the start of incubation. □, control (1% ethanol); ●, MG132; ◯, lactocystin; X, lactacystin β-lactone.
To confirm and quantify the effect of the proteasome inhibitors, we measured the uptake of ^125I-GH in a kinetic experiment. Cells were pretreated with the inhibitors, ^125I-GH was bound on ice, and cells were incubated for various periods of time (FIG. 2). At the end of the incubation period, uptake was determined by washing the cells at low pH to remove the label from the cell surface. Again, GH uptake was inhibited by the proteasome inhibitors: MG132 and lactacystin b-lactone reduced the uptake to approximately 25% of the control level. […] TCA-soluble radioactivity in the culture medium, derived from lysosomal degradation of ^125I-GH, increased after 15 minutes if no inhibitor was added; virtually no TCA-soluble radioactivity appeared if the inhibitors were present (not shown).
GH binding and internalization. ^125I-hGH was prepared using chloramine T (28). For internalization studies, cells were grown in 35 mm dishes, washed with aMEM, supplemented with 20 mM HEPES, incubated for 1 hour at 30° C. in aMEM/HEPES, ^125I-GH (8 nM) was bound on ice for 60 minutes in the absence or presence of excess unlabeled GH, and the cells were washed free of unbound GH and incubated for 0 to 60 minutes. If indicated, lactacystin or its b-lactone (20 mM), MG132 (20 mM), and ZL3vinylsulfone (20 mM), dissolved in either ethanol or dimethylsulfoxide, or only vehicle, were added 3 hours before the start of the experiment. Membrane-associated GH was removed by acid wash (0.15 M NaCl, 0.05 M glycine, pH 2.5) (29) and internalized GH was determined by measuring the radioactivity after solubilization of the acid-treated cells by 1 M NaOH.

[2] = test system: CHO-ts20 cells expressing the rabbit GHR; test: Cy3-GH endocytosis by confocal microscopy, wild-type GHR; conditions: 20 mM inhibitor 3 hours at 30° C., then Cy3-GH 30 minutes
Method: FIG. 1. Effect of proteasome inhibitors on Cy3-GH and Cy3-transferrin endocytosis. CHO-ts20 cells, expressing either wild-type (A, D, G, C, F, I) or truncated GHR (B, E, H), were incubated with vehicle (A-C) or with 20 mM MG132 (D-F) or 20 mM lactacystin (G-I) for 3 hours at 30° C.; then Cy3-GH (A, B, D, E, G, H), or Cy3-transferrin (C, F, I) were added for 30 minutes, and the cells were washed, fixed and the fluorescence was visualized by confocal microscopy. If excess labeled ligand was added, no uptake was observed. If the cells in D, G were treated at pH 2.5 before fixation, virtually no label was visible (not shown).
Down-regulation of signal-transducing membrane receptors is part of highly programmed cascades of events leading both to extinction of the signaling pathway(s) and to rapid degradation of the primary messenger: the receptor and its ligand (3, 4, 5, 6, 7). In the absence of ligand, the half-life of GHR is approximately 1 to 2 hours depending on the cell system used. The assumption is that this is mainly due to a proteolytic cleavage in the extracellular domain of the GHR resulting in soluble GH-binding protein (8). If ligand is present, a completely different scenario follows: two GHR polypeptides dimerize, they are phosphorylated by the tyrosine kinase Jak2 and ubiquitinated, and the complex is endocytosed. […]

[3] = test system: mature GHR in CHO-ts20 cells; test: 35S-methionine pulse-chase of GHR in the presence of GH; conditions: 16 nM GH
Method: FIG. 3. Effect of MG132 on GHR degradation in the presence of ligand. A. Cells were pulse labeled with ^35S-methionine and then chased in unlabeled methionine in the presence of 16 nM GH with or without MG132 for the times indicated. GHR was immunoprecipitated using an anti-cytosolic tail antibody. The radioactivity in the mature (upper) band (inset) was quantitated and plotted. □, control (1% ethanol); ●, MG132. B. Cells were biotinylated and incubated in the presence of GH with MG132 or with vehicle only at 30° C. for the time periods indicated. After streptavidin-bead purification aliquots of the cell lysates were analyzed by SDS-PAGF; western blots were incubated with a monoclonal antibody specific for the extracellular GHR domain and detected with enhanced chemifluorescence. […]
If proteasome inhibitors affect GHR-uptake, it is expected that the inhibitors prolong the lifetime of GHRs at the cell surface. To address this, we measured the effect of MG132 in a pulse-chase experiment. […] To assess the effect of MG132 more directly, we measured degradation of cell-surface biotinylated GHR after incubation in the presence of ligand (FIG. 3B). […]
Metabolic labeling. […] The radioactivity was determined using a Molecular Dynamics phosphoimager (STORM860 equipped with ImageQuant software, Molecular Dynamics, Sunnyvale, Calif.). […]

[4] = test system: cell-surface GHR in CHO-ts20 cells; test: Degradation of cell-surface biotinylated GHR
Method: FIG. 3. Effect of MG132 on GHR degradation in the presence of ligand. A. Cells were pulse labeled with ^35S-methionine and then chased in unlabeled methionine in the presence of 16 nM GH with or without MG132 for the times indicated. GHR was immunoprecipitated using an anti-cytosolic tail antibody. The radioactivity in the mature (upper) band (inset) was quantitated and plotted. □, control (1% ethanol); ●, MG132. B. Cells were biotinylated and incubated in the presence of GH with MG132 or with vehicle only at 30° C. for the time periods indicated. After streptavidin-bead purification aliquots of the cell lysates were analyzed by SDS-PAGF; western blots were incubated with a monoclonal antibody specific for the extracellular GHR domain and detected with enhanced chemifluorescence. The sharp band below the mature GHR (130 kDa) originated from a slight background staining of precursor GHR (110 kDa), due to incomplete removal of biotinylation reagent at cell lysis.
If proteasome inhibitors affect GHR-uptake, it is expected that the inhibitors prolong the lifetime of GHRs at the cell surface. To address this, we measured the effect of MG132 in a pulse-chase experiment. […] To assess the effect of MG132 more directly, we measured degradation of cell-surface biotinylated GHR after incubation in the presence of ligand (FIG. 3B). […] However, clearance from the cell surface was reduced >50% in the presence of MG132. […] The lifetime of this species was extended in the presence of MG132. Attempts to accumulate this species or other degradation products failed until now.
Cell surface biotinylation. CHO-ts20 cells, grown in 35 mm dishes, were incubated for 60 minutes at 30° C. in aMEN/HEPES, biotinylated on ice for 30 minutes using sulfo-NHS-SS-biotin (Pierce, Rockford, Ill.), and washed free of biotinylating reagents. For GH binding, the cells were incubated for 1 hour on ice in the presence of 16 nM GH with either 20 mM MG132 or 1% ethanol. The incubation was continued at 30° C. for various time periods in the presence of GH with MG132 or ethanol only. […]

GHR in CHO-E36 cells = test: GH-induced GHR degradation, quantitative western blot, CHO-E36; conditions: CHO-E36, both at 30 and 40° C.
Method: (§1) FIG. 4. GH-induced receptor degradation depends on an intact ubiquitin conjugation system. CHO-ts20 and CHO-E36 cells were incubated at the permissive or non-permissive temperature for 3 hours in the presence or absence of GH. Cells were lysed and aliquots were analyzed by western blotting and enhanced chemifluorescence. M, mature GHR, P, precursor GHR.
(§2) To investigate whether the ubiquitin system selects the GHR for truncation by the proteasome, we expressed the receptor in CHO-ts20 cells harboring a temperature-sensitive ubiquitin-activating enzyme, E1. The cells were incubated for 60 minutes at 42° C. (sufficient to stop generation of newly ubiquitinated proteins), followed by 3 hours at 40° C. in the presence or absence of GH, and the amounts of GHR were determined by quantitative western blot analysis (FIG. 4). At the permissive temperature, incubation in the presence of GH decreased the steady-state amounts of GHR. If the cells were kept at 40° C. in the presence of GH, the amount of GHR increased to 170%. To ascertain that this increase is solely due to a defective ubiquitin conjugation system, we used the CHO-E36 cells with an intact ubiquitin conjugation system at 40° C. As expected, in these cells the steady state of mature GHR decreased to approximately 50% of that without GH, both at 30 and 40° C. […]

[5] = test system: GHR in CHO-ts20 cells (temperature-sensitive E1); test: GH-induced GHR degradation, quantitative western blot, CHO-ts20; conditions: 3 hours
Method: as §1, §2

CC(C)[C@H](O)[C@@]12NC(=O)[C@H](C)[C@@H]1OC2=O [lactacystin b-lactone]
125I-GH uptake relative to control [1]: approximately 25 % of the control level

CC(=O)N[C@@H](CSC(=O)[C@]1([C@@H](O)C(C)C)NC(=O)[C@H](C)[C@@H]1O)C(=O)O [lactacystin]
Cy3-GH uptake (intracellular fluorescent label) [2]: hardly any label was present intracellularly | 125I-GH uptake relative to control [1]: somewhat less effective

CC(C)C[C@@H](C=O)NC(=O)[C@H](CC(C)C)NC(=O)[C@H](CC(C)C)NC(=O)OCc1ccccc1 [MG132] (Cbz-Leu-Leu-Leu-aldehyde)
Cy3-GH uptake (intracellular fluorescent label) [2]: hardly any label was present intracellularly | degradation rate of mature GHR [3]: affects the degradation rate of mature GHR | membrane transport from ER to the Golgi complex (maturation kinetics 110 kDa to 130 kDa) [3]: does not affect membrane transport from ER to the Golgi complex | 125I-GH uptake relative to control [1]: approximately 25 % of the control level | lifetime of biotinylated 85-kDa intermediate degradation product ([4]; in the presence of GH): extended | reduction of GHR clearance from the cell surface ([4]; in the presence of GH (16 nM), 20 mM MG132, 30° C.): > 50%

GH: growth hormone, ligand of the growth hormone receptor
steady state of mature GHR relative to that without GH (GHR in CHO-E36 cells): approximately 50% | amount of GHR in the presence of GH (percentage of mature GHR present without GH) ([5]; CHO-ts20, 40° C. (non-permissive)): 170% | steady-state amount of GHR in the presence of GH ([5]; CHO-ts20, permissive temperature): decreased | disappearance of cell-surface biotinylated GHR ([4]; incubation in the presence of ligand, 30° C.): induced a rapid disappearance of the GHR

— patent US6855546B1, “Controlling availability or activity of proteins by use of protease inhibitors or receptor fragments” (Universiteit Utrecht, priority 1999, dated 2005)
